Test systems include HCT-116 colon; PC-3 prostate; OVCAR-8 ovarian; SNB-19 CNS; U251 CNS; ACHN renal; SN12C renal; SF-295 CNS; CAKI-1 renal; SF-268 CNS.
Holding throughout (assay): growth of human tumour cells (NCI), 48 h

“And” between values parts separate entries of the source, which are not always exact repeats. Equal values may be shown once.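 Following 48 hours of exposure in 96-well plates, responses at five concentrations were used to interpolate endpoints linearly. At the GI50, growth is halved. Definition used: TGI = concentration required for complete inhibition of growth.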 Where only a bound is given, the exact number is not on record here.

For the molecule `COc1ccc(CNC(C)C(=O)O)cc1` (stereo unspecified), the TGI in the test with HCT-116 colon, in the test on PC-3 prostate, in the test on OVCAR-8 ovarian, with SNB-19 CNS, in the test on U251 CNS and in the test with ACHN renal was over 100 µM each time. Besides, the TGI in the test with SN12C renal, in the test on SF-295 CNS, with CAKI-1 renal and in the test with SF-268 CNS was over 100 µM in each case.

With `Cc1cc2nc3ccc(=[N+](C)C)cc-3sc2cc1N`, the GI50 in the test with HCT-116 colon was 0.226 µM and 0.232 µM; in the test on PC-3 prostate, 0.121 µM and 0.173 µM; with OVCAR-8 ovarian it was 0.27 µM and 0.8 µM; in the test with SNB-19 CNS it was 0.782 µM; in the test on U251 CNS it was 0.357 µM and 0.381 µM; with ACHN renal, 0.844 µM and 1.1 µM. The GI50 is 0.821 µM and 1.15 µM with SN12C renal; 0.473 µM and 0.554 µM in the test with SF-295 CNS; 2.3 µM and 1.56 µM in the test with CAKI-1 renal; 0.351 µM and 0.956 µM in the test with SF-268 CNS. The TGI in the test on HCT-116 colon was 1.2 µM and 5.03 µM and 0.98 µM; with PC-3 prostate, 2.65 µM and 7.2 µM and 3.43 µM; with OVCAR-8 ovarian, 1.99 µM and 7.22 µM and 7.3 µM; with SNB-19 CNS, 10.5 µM and 8.99 µM and 9.55 µM; in the test on U251 CNS it was 2.55 µM and 18.9 µM and 2.11 µM; with SN12C renal, 3.7 µM and 10.6 µM and 2.52 µM. Moreover, the TGI is 5.27 µM and 14.5 µM and 4.83 µM with SF-295 CNS; 12.8 µM and > 55.9 µM and 10.2 µM with CAKI-1 renal.

For the molecule `NC(=S)N/N=C/c1ccc(N)cn1`, the TGI in the test with HCT-116 colon was over 10 µM; in the test with PC-3 prostate, over 10 µM; in the test on OVCAR-8 ovarian, over 10 µM; in the test on SNB-19 CNS, over 10 µM; in the test with U251 CNS, over 10 µM; in the test on ACHN renal, 7.65 µM. Moreover, the TGI with SN12C renal, in the test with SF-295 CNS, in the test with CAKI-1 renal and with SF-268 CNS was over 10 µM each time.

For the molecule `CCCC[n+]1c(/C=C\c2c(OC)cc(OC)cc2OC)ccc2ccccc21`, the GI50 in the test on HCT-116 colon is 0.413 µM; with PC-3 prostate it was 0.737 µM; with OVCAR-8 ovarian, 0.613 µM; in the test on SNB-19 CNS, 0.604 µM; with U251 CNS, 0.353 µM; in the test with ACHN renal, 3.01 µM. Besides, the GI50 with SN12C renal was 0.728 µM; in the test with SF-295 CNS, 0.802 µM; with CAKI-1 renal, 2.73 µM; with SF-268 CNS, 2.03 µM. In addition, the TGI in the test with HCT-116 colon turned out to be 3.48 µM; in the test with PC-3 prostate, 5.71 µM; with OVCAR-8 ovarian it was 7.69 µM; with SNB-19 CNS, 6.79 µM; in the test on U251 CNS, 3.66 µM; with ACHN renal, 11.8 µM. In addition, the TGI stood at 5.77 µM in the test on SN12C renal, 3.25 µM in the test on SF-295 CNS, 11.5 µM in the test with CAKI-1 renal and 10.3 µM in the test on SF-268 CNS.

As for `Cc1cccc2nc3cccc(C(=O)NCCNCCNCCNC(=O)c4cccc5nc6cccc(C)c6nc45)c3nc12`, the GI50 in the test on HCT-116 colon is under 0.01 µM; in the test with PC-3 prostate, under 0.0164 µM; in the test with OVCAR-8 ovarian it was under 0.01 µM; in the test with SNB-19 CNS it was under 0.01 µM; with U251 CNS, under 0.01 µM; in the test on ACHN renal it was under 0.01 µM. For the same molecule, the GI50 was 0.0489 µM with SN12C renal, under 0.01 µM in the test on SF-295 CNS, 0.0461 µM with CAKI-1 renal and under 0.01 µM in the test with SF-268 CNS. The TGI in the test with HCT-116 colon was over 35.8 µM; with PC-3 prostate, 4.63 µM; with OVCAR-8 ovarian, 1.14 µM; in the test on SNB-19 CNS, 15.5 µM; with U251 CNS, 1.04 µM; in the test on ACHN renal, 10.9 µM. The TGI is 14.1 µM in the test with SN12C renal, 1.11 µM in the test on SF-295 CNS, 23.2 µM with CAKI-1 renal and 1.7 µM with SF-268 CNS.

On to `c1ccc(Nc2nc(-c3ccccn3)cs2)nc1`, for which the GI50 is 0.326 µM in the test with HCT-116 colon; 0.568 µM in the test on PC-3 prostate; 0.395 µM in the test with OVCAR-8 ovarian; 0.997 µM in the test with SNB-19 CNS; 0.332 µM with U251 CNS; 0.341 µM in the test with ACHN renal. Further, the GI50 is 0.873 µM in the test on SN12C renal, 0.297 µM in the test with SF-295 CNS, 0.0992 µM in the test with CAKI-1 renal and 0.346 µM in the test with SF-268 CNS. Further, the TGI in the test on HCT-116 colon is 21.6 µM; with PC-3 prostate, over 89.9 µM; with OVCAR-8 ovarian, over 38.5 µM; in the test on SNB-19 CNS, over 100 µM; in the test with U251 CNS, over 43.2 µM; in the test on ACHN renal it was over 100 µM. The TGI with SN12C renal is over 100 µM; with SF-295 CNS it was 6.61 µM; in the test on CAKI-1 renal, 2.12 µM; in the test with SF-268 CNS, over 45.5 µM.

Regarding `COc1ccc2c(Cc3c4ccccc4cc4ccccc34)cncc2c1O`, the TGI was 16.1 µM in the test on HCT-116 colon; over 59.9 µM in the test with PC-3 prostate; 5.74 µM in the test on OVCAR-8 ovarian; over 41.6 µM in the test on SNB-19 CNS; 7.71 µM with U251 CNS; 27.3 µM in the test on ACHN renal. The TGI was over 63.9 µM in the test on SN12C renal, 8.35 µM with SF-295 CNS, 36.3 µM with CAKI-1 renal and over 100 µM in the test with SF-268 CNS.

Consider `c1ccc(CN2CCC3(CC2)SSC2(CCN(Cc4ccccc4)CC2)SS3)cc1`, for which the TGI in the test on HCT-116 colon, with PC-3 prostate, with OVCAR-8 ovarian, in the test with SNB-19 CNS, in the test with U251 CNS and in the test on ACHN renal was over 100 µM in each case. Further, the TGI with SN12C renal, in the test on SF-295 CNS, with CAKI-1 renal and in the test on SF-268 CNS was over 100 µM throughout.

In the case of `C/C(=N\NC(=S)N1CCN(C2CCCCCC2)CC1)c1ccccn1`, the GI50 was under 0.001 µM in the test with HCT-116 colon; under 0.001 µM in the test with OVCAR-8 ovarian; 3.17 µM in the test on SNB-19 CNS; under 0.001 µM in the test with U251 CNS; 0.00121 µM in the test on ACHN renal; 2.02 µM in the test with SN12C renal. Further, the GI50 with SF-295 CNS was 0.00302 µM; in the test with CAKI-1 renal, 0.155 µM. The TGI was 1.65 µM with HCT-116 colon; 2.07 µM with PC-3 prostate; 7.94 µM and 2.63 µM in the test with OVCAR-8 ovarian; 8.3 µM in the test with SNB-19 CNS; 3 µM and 2.1 µM with U251 CNS; 2.7 µM in the test with ACHN renal. Also, the TGI in the test with SN12C renal is 2.96 µM; in the test on SF-295 CNS, 5.67 µM and 2.91 µM; with CAKI-1 renal, 3.5 µM; in the test with SF-268 CNS, 5.5 µM.

Values taken from PubChem BioAssay (NCI).
